Here are results for three compounds from paper PMC2671474 (Chemistry & biology, 2009).

For one experiment, the target named is P. falciparum FTase (Plasmodium falciparum, UniProt Q5EI73+Q5EI74). Description: P. falciparum FTase activity assay as described in Glenn et al., 2006. Type of experiment: biochemical. As to conditions: for Selectivity: IC50 for hFTase divided by IC50 for PfFTase.
In the next experiment the target is Human FTase (Homo sapiens, UniProt P49354+P49356). As to conditions: legend of Figure 4C; mammalian enzyme.
Where [1] appears, read: read-out: inhibition of P. falciparum FTase activity.

Regarding `Cc1ccccc1S(=O)(=O)N(CCN(Cc1cncn1C)c1ccc(C#N)cc1)Cc1ccccc1` [Compound 7, N-Benzyl, N-{2-[(4-cyanophenyl)-(3-methyl-3H-imidazol-4-ylmethyl)-amino]-ethyl} 2-methyl-benzenesulfonamide], the Selectivity at P. falciparum FTase was found to be 32.

For orientation: inhibition means how much of the control response was suppressed. As for `Cc1ccccc1S(=O)(=O)N(CCN(Cc1cncn1C)c1ccc(C#N)cc1)CC1CCN(C(=O)OC(C)(C)C)CC1` [Compound 5, N-(N-tert-Butoxycarbonylpiperidin-4-ylmethyl), N-({2-[(4-cyanophenyl)-(3-methyl-3H-imidazol-4-ylmethyl)-amino]-ethyl}) 2-methylbenzenesulfonamide], on P. falciparum FTase (setting [1]), the inhibition at 0.0005 µM was found to be 20% and the inhibition at 0.005 µM was determined as 76%.

Consider `Cn1cncc1CN(CCN(CC1CCN(C(=O)OC(C)(C)C)CC1)S(=O)(=O)c1ccccc1-c1cccc(CCC(=O)O)c1)c1ccc(C#N)cc1` [Compound 10, N-(N-tert-Butoxycarbonylpiperidin-4-ylmethyl), N-({2-[(4-cyanophenyl)-(3-methyl-3H-imidazol-4-ylmethyl)-amino]-ethyl}) (3′-(2-carboxyethyl)-biphenyl)-2-sulfonamide], for which the Selectivity at P. falciparum FTase was found to be 11. In addition, the “IC50 (in words)” value at Human FTase is given as “sub-micromolar”.
